These are literature values, as cited in article PMC5669518 (Biochemistry and Biophysics Reports, 2015).

In the series the test system is NEU2. To be noted: active form of oseltamivir; ref [16], [17].

As for `CCOC(=O)C1=C[C@@H](OC(CC)CC)[C@H](NC(C)=O)[C@@H](N)C1` [oseltamivir], the “Inhibitory effect on NEU2” value is on record as “does not exhibit the inhibitory effect”.
